In PubChem BioAssay (NCI):
Several values for one entry are separate records, joined by “and”; a condition that tells them apart may be missing. Equal entries are not always repeated.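 In this assay, cells in 96-well plates receive the compound at five concentrations for 48 hours. Endpoints are linearly interpolated between the surrounding concentrations. Here, GI50 denotes the concentration required for 50% inhibition of growth. TGI denotes the concentration required for complete inhibition of growth.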

Assays:
Assay in all cases: NCI anticancer screen, dose series, 48 h
HT29 colon = system: HT29 colon
A498 renal = system: A498 renal
SR leukemia = system: SR leukemia
IGROV1 ovarian = system: IGROV1 ovarian
OVCAR-5 ovarian = system: OVCAR-5 ovarian
KM12 colon = system: KM12 colon
HCT-15 colon = system: HCT-15 colon
SN12C renal = system: SN12C renal
SK-MEL-28 melanoma = system: SK-MEL-28 melanoma
K-562 leukemia = system: K-562 leukemia
OVCAR-4 ovarian = system: OVCAR-4 ovarian
SNB-75 CNS = system: SNB-75 CNS
MALME-3M melanoma = system: MALME-3M melanoma
SK-OV-3 ovarian = system: SK-OV-3 ovarian
BT-549 breast = system: BT-549 breast
SW-620 colon = system: SW-620 colon
HCT-116 colon = system: HCT-116 colon
OVCAR-3 ovarian = system: OVCAR-3 ovarian
DU-145 prostate = system: DU-145 prostate
UACC-257 melanoma = system: UACC-257 melanoma
NCI-H226 lung = system: NCI-H226 lung
LOX IMVI melanoma = system: LOX IMVI melanoma
CCRF-CEM leukemia = system: CCRF-CEM leukemia
COLO 205 colon = system: COLO 205 colon
NCI-H522 lung = system: NCI-H522 lung
UO-31 renal = system: UO-31 renal
SNB-19 CNS = system: SNB-19 CNS
EKVX NSCLC = system: EKVX NSCLC
A549 NSCLC = system: A549 NSCLC

In the case of `COc1cc2c(c(OC)n1)[C@]1(O)[C@H](O)[C@H](CN(C)C)[C@@H](c3ccccc3)[C@]1(c1ccc(C#N)cc1)O2`, the GI50 (HT29 colon) is reported as less than 10 nM, the TGI (HT29 colon) is reported as 4250 nM and 4040 nM and the GI50 (A498 renal) is reported as 19.2 nM and 20.1 nM. For the same compound, the TGI (A498 renal) was 51.8 nM and 77.3 nM, the GI50 (SR leukemia) was 24.6 nM and < 11.4 nM and the TGI (SR leukemia) was 4480 nM. For the same compound, the GI50 (IGROV1 ovarian) was 13.4 nM and < 10 nM, the TGI (IGROV1 ovarian) was 2440 nM and 1930 nM and the GI50 (OVCAR-5 ovarian) was 20.8 nM and 17.4 nM. For the same compound, the TGI (OVCAR-5 ovarian) was 866 nM and 1430 nM, the GI50 (KM12 colon) was 12.8 nM and < 10 nM and the TGI (KM12 colon) was 3610 nM and 7590 nM. For the same compound, the GI50 (HCT-15 colon) was 24.3 nM and 19.7 nM, the TGI (HCT-15 colon) was 3650 nM and 3440 nM and the GI50 (SN12C renal) was 15.6 nM and < 13.2 nM. The TGI (SN12C renal) was 1940 nM and 1610 nM, the GI50 (SK-MEL-28 melanoma) was 33.4 nM and 31.3 nM and the TGI (SK-MEL-28 melanoma) was 813 nM and 1560 nM. The GI50 (K-562 leukemia) was less than 10 nM, the GI50 (OVCAR-4 ovarian) was 37.1 nM and 25.1 nM and the TGI (OVCAR-4 ovarian) was 3720 nM and 5270 nM. The GI50 (SNB-75 CNS) was 100 nM and 47 nM, the TGI (SNB-75 CNS) was 4580 nM and 2020 nM and the GI50 (MALME-3M melanoma) was 19.4 nM and 19 nM. The TGI (MALME-3M melanoma) was 700 nM and 841 nM, the GI50 (SK-OV-3 ovarian) was 48.1 nM and 28.4 nM and the TGI (SK-OV-3 ovarian) was 7950 nM and 2100 nM. The GI50 (BT-549 breast) was 45.1 nM and 73.7 nM, the TGI (BT-549 breast) was 825 nM and 2620 nM and the GI50 (SW-620 colon) was 12.4 nM and < 10 nM. The TGI (SW-620 colon) was 3370 nM and 10400 nM, the GI50 (HCT-116 colon) was less than 10 nM and the TGI (HCT-116 colon) was 2650 nM and 1700 nM. For the same compound, the GI50 (OVCAR-3 ovarian) was 33.4 nM and 14.6 nM, the TGI (OVCAR-3 ovarian) was 2780 nM and 1870 nM and the GI50 (DU-145 prostate) was 19.1 nM and < 13.6 nM. For the same compound, the TGI (DU-145 prostate) was 3450 nM and 3690 nM, the GI50 (UACC-257 melanoma) was 41.7 nM and 42.7 nM and the TGI (UACC-257 melanoma) was 2450 nM and 2120 nM. The GI50 (NCI-H226 lung) was 25.4 nM and < 13.1 nM, the TGI (NCI-H226 lung) was 4340 nM and 1280 nM and the GI50 (LOX IMVI melanoma) was less than 10 nM. The TGI (LOX IMVI melanoma) was 15.3 nM and 13.3 nM, the GI50 (CCRF-CEM leukemia) was less than 10 nM and the TGI (CCRF-CEM leukemia) was > 52700 nM and 13600 nM. The GI50 (COLO 205 colon) was 11.4 nM and < 11.1 nM, the TGI (COLO 205 colon) was 44.2 nM and 57.2 nM and the GI50 (NCI-H522 lung) was 25.7 nM and 21.2 nM. For the same compound, the TGI (NCI-H522 lung) was 1150 nM and 2240 nM, the GI50 (UO-31 renal) was 22.4 nM and 19.7 nM and the TGI (UO-31 renal) was 479 nM and 319 nM. For the same compound, the GI50 (SNB-19 CNS) was 11.1 nM and 10.4 nM, the TGI (SNB-19 CNS) was 3800 nM and 4210 nM and the GI50 (EKVX NSCLC) was 30.5 nM and 23.7 nM. The TGI (EKVX NSCLC) was 2810 nM and 2540 nM, the GI50 (A549 NSCLC) was less than 10 nM and the TGI (A549 NSCLC) was 8420 nM and 8640 nM.
